This note sets out measurements from ChEMBL document CHEMBL5665440, “ASAP - In vitro liver microsomal stability” (2024).

The nature of series [1]: Human liver microsomal stability of compound in microsomal protein, PBS buffer pH 7.4, NADPH, glucose-6-phosphate and glucose-6-phosphate dehydrogenase media. Aliquotes were taken at 5 time points and after stopping the reaction, supernatants were analyzed using HPLC coupled with a tandem mass spectrometer. The elimination constant, half-life, and intrinsic clearance are determined as results using linear regression analysis. Type of series: ADME, microsomes, Microsome. Particulars: for half-life / microsomal CLint: liver microsomes.

A short description of series [2]: Mouse liver microsomal stability of compound in microsomal protein, PBS buffer pH 7.4, NADPH, glucose-6-phosphate and glucose-6-phosphate dehydrogenase media. Aliquotes were taken at 5 time points and after stopping the reaction, supernatants were analyzed using HPLC coupled with a tandem mass spectrometer. The elimination constant, half-life, and intrinsic clearance are determined as results using linear regression analysis. The series is classed as ADME, microsomes, Microsome. The conditions noted are these: for half-life / microsomal CLint: liver microsomes; for Remaining / Remaining (without cofactor): microsomes.

Structures are written as SMILES.
For Remaining (without cofactor) in this document: time not given here.
For Remaining in this document: time not given here.

In series [1], `Clc1ccc2[nH]cc(Cc3ccc(-c4nn[nH]n4)cc3)c2c1` showed a half-life above 2.89 h and a microsomal CLint below 10 µL/min/mg. In series [1] (microsomes), the Remaining was found to be 98.893% and the “Remaining (without cofactor)” value was 98.069%.
As for `CC(C)NC(=O)[C@H](Nc1ccc2c(c1)CNC2)c1cc(Cl)cc2[nH]ncc12`, in series [1], the half-life is above 2.89 h and the microsomal CLint was below 10 µL/min/mg. Also, in series [1] (microsomes), the Remaining was found to be 91.546% and the “Remaining (without cofactor)” value is recorded as 107.23%.
Consider `O=C(Nc1ccc2c(c1)CNC2)c1cc(Cl)cc2c1CCC2`, for which, in series [1], the half-life is above 2.89 h and the microsomal CLint was below 10 µL/min/mg. In addition, in series [1] (microsomes), the Remaining was 85.255% and the “Remaining (without cofactor)” value was 101.935%.
`O=C(Nc1ccc2c(c1)CNC2)c1cc(Br)cc2[nH]c(-c3ccccc3)nc12`: in series [1], the half-life came to 2.18 h and the microsomal CLint came to 12.8 µL/min/mg. Moreover, in series [1] (microsomes), the Remaining stood at 80.427% and the “Remaining (without cofactor)” value is 94.891%. Besides, in series [2], the half-life turned out to be 0.636 h, the intrinsic metabolic clearance (microsomal CLint) turned out to be 43.8 µL/min/mg, the Remaining was found to be 49.173% and the “Remaining (without cofactor)” value came out at 86.086%.
In series [1], `C=CC[C@H](Nc1ccc(-c2nn[nH]n2)cc1)c1cc(Cl)cc(NC(=O)OCc2ccccc2)c1` showed a half-life of 2.77 h and an intrinsic metabolic clearance (microsomal CLint) of 10.1 µL/min/mg. Further, in series [1] (microsomes), the Remaining stood at 84.591% and the “Remaining (without cofactor)” value came to 100.465%.
For `O=C(Nc1cc(Cl)cc([C@H]2CN(Cc3ccccc3)C[C@@H]2c2cccc(-c3nn[nH]n3)c2)c1)OCc1ccccc1` the same measures were 0.601 h, 46.3 µL/min/mg, 46.707% and 96.205%.
For `Cn1ncc2c(C(=O)Nc3ccc4c(c3)CNC4)cc(Br)cc21` the same measures were above 2.89 h, below 10 µL/min/mg, 83.745% and 108.267%.
As for `Cc1c(C(=O)Nc2cc([C@H]3CCOC3)ccn2)cc(C2CC2)n1C`, in series [1], the half-life worked out at 0.482 h and the microsomal CLint came out at 57.7 µL/min/mg. Moreover, in series [1] (microsomes), the Remaining stood at 39.342% and the “Remaining (without cofactor)” value is on record as 94.838%.
For `CNC(=O)[C@H](Nc1ccc(-c2nnn[nH]2)cc1)c1cc(Cl)cc(C2CC2)c1` the same measures were above 2.89 h, below 10 µL/min/mg, 90.289% and 100.18%.
In series [1], `O=C(Nc1cc(Cl)cc([C@H](Nc2cccc(-c3nn[nH]n3)c2)C(=O)NCc2ccccc2)c1)OCc1ccccc1` gave a half-life above 2.89 h and an intrinsic clearance (microsomal CLint) below 10 µL/min/mg. Besides, in series [1] (microsomes), the Remaining was found to be 93.548% and the “Remaining (without cofactor)” value is recorded as 99.519%.
For the molecule `O=C(/C=C/c1ccccc1)C(=O)N1CCN(CCc2ccccc2)CC1`, in series [1], the half-life was determined as 0.167 h and the microsomal CLint is 167 µL/min/mg. Also, in series [1] (microsomes), the Remaining is 6% and the “Remaining (without cofactor)” value stood at 98%. In addition, in series [2], the half-life came to 0.153 h, the microsomal CLint turned out to be 181 µL/min/mg, the Remaining is on record as 5% and the “Remaining (without cofactor)” value is on record as 96%.
In series [1], `CCCC[C@@H](NC(=O)OC(C)(C)C)C(=O)N[C@@H](C(=O)NCc1ccc(CN)cc1)c1ccc(OCc2ccccc2)cc1` returned a half-life of 0.497 h and an intrinsic clearance (microsomal CLint) of 56 µL/min/mg. Moreover, in series [1] (microsomes), the Remaining is listed as 40.588% and the “Remaining (without cofactor)” value was 99.499%. In addition, in series [2], the half-life was determined as 3.11 h, the intrinsic metabolic clearance (microsomal CLint) came to 7.44 µL/min/mg, the Remaining amounted to 87.681% and the “Remaining (without cofactor)” value is recorded as 94.521%.
`O=C(Nc1ccc2c(c1)CNC2)c1cc(Cl)cc2[nH]ncc12`: in series [1], the half-life was above 2.89 h and the microsomal CLint is below 10 µL/min/mg. In series [1] (microsomes), the Remaining was found to be 87.652% and the “Remaining (without cofactor)” value amounted to 96.46%. Further, in series [2], the half-life was 0.115 h, the intrinsic metabolic clearance (microsomal CLint) is 243 µL/min/mg, the Remaining is on record as 1.932% and the “Remaining (without cofactor)” value is 102.129%.
In the case of `N#C[C@H](Nc1ccc2c(c1)CNC2)c1cc(Cl)cc2[nH]ncc12`, in series [1], the half-life amounted to 2.71 h and the microsomal CLint turned out to be 10.3 µL/min/mg. Also, in series [1] (microsomes), the Remaining came out at 84.178% and the “Remaining (without cofactor)” value was 84.336%.
On to `NCc1cccc(NC(=O)[C@@H](NC(=O)OCc2ccccc2)c2ccc(OCc3ccccc3)cc2)c1`, for which, in series [1], the half-life amounted to 2.48 h and the microsomal CLint worked out at 11 µL/min/mg. Further, in series [1] (microsomes), the Remaining is on record as 87% and the “Remaining (without cofactor)” value came out at 100%. Also, in series [2], the half-life was 30 h, the intrinsic metabolic clearance (microsomal CLint) is 1 µL/min/mg, the Remaining amounted to 103% and the “Remaining (without cofactor)” value is recorded as 106%.
For the molecule `NCc1cccc(NC(=O)C[C@H](NC(=O)OCc2ccccc2)c2ccc(OCc3ccccc3)c(Br)c2)c1`, in series [1], the half-life stood at 2.25 h and the intrinsic metabolic clearance (microsomal CLint) was 12.4 µL/min/mg. In series [1] (microsomes), the Remaining amounted to 79.862% and the “Remaining (without cofactor)” value was 98.099%. Besides, in series [2], the half-life is above 2.89 h, the microsomal CLint was below 10 µL/min/mg, the Remaining is on record as 98.216% and the “Remaining (without cofactor)” value amounted to 98.077%.
As for `Cc1c(C(=O)Nc2cc(-c3cccnc3)ccn2)cc(C2CC2)n1C`, in series [2], the half-life turned out to be 0.0717 h, the intrinsic metabolic clearance (microsomal CLint) was determined as 388 µL/min/mg, the Remaining stood at 0.854% and the “Remaining (without cofactor)” value is recorded as 95.554%.
`COc1cc(Cc2c(-c3ccc(F)cc3)noc2C)nc(N2CCNCC2)n1`: in series [1], the half-life came to 1.8 h and the microsomal CLint turned out to be 15 µL/min/mg. In addition, in series [1] (microsomes), the Remaining was determined as 82% and the “Remaining (without cofactor)” value is 110%. In addition, in series [2], the half-life is 0.695 h, the intrinsic metabolic clearance (microsomal CLint) is 33 µL/min/mg, the Remaining is 52% and the “Remaining (without cofactor)” value was found to be 101%.
Consider `O=C(Nc1cc(Cl)cc(-c2ccc3[nH]c(C(=O)O)cc3c2)c1)OCc1ccccc1`, for which, in series [1], the half-life was above 2.89 h and the intrinsic clearance (microsomal CLint) is below 10 µL/min/mg. In series [1] (microsomes), the Remaining was 92.268% and the “Remaining (without cofactor)” value is given as 98.779%.
In series [1], `NCc1cccc(CNC(=O)[C@@H](NC(=O)OCc2ccccc2)c2ccc(OCc3ccccc3)cc2)c1` returned a half-life of 7.17 h and an intrinsic clearance (microsomal CLint) of 3.88 µL/min/mg. Also, in series [1] (microsomes), the Remaining came out at 94.901% and the “Remaining (without cofactor)” value stood at 89.996%. In addition, in series [2], the half-life came to 8.46 h, the microsomal CLint stood at 2.73 µL/min/mg, the Remaining is 103.125% and the “Remaining (without cofactor)” value is 96.808%.
As for `C=CC[C@H]1NCc2cc(NC(=O)c3cc(F)cc4[nH]ncc34)ccc21`, in series [1], the half-life is above 2.89 h and the intrinsic metabolic clearance (microsomal CLint) is below 10 µL/min/mg. Also, in series [1] (microsomes), the Remaining is 97.296% and the “Remaining (without cofactor)” value was 93.037%.
For the molecule `CNC(=O)c1cc(Cl)ccc1NS(=O)(=O)c1ccc(Oc2ccccc2Cl)cc1`, in series [1], the half-life is 0.263 h and the microsomal CLint came to 106 µL/min/mg. In addition, in series [1] (microsomes), the Remaining was 18% and the “Remaining (without cofactor)” value turned out to be 94%. Further, in series [2], the half-life was determined as 0.247 h, the intrinsic clearance (microsomal CLint) turned out to be 94 µL/min/mg, the Remaining amounted to 16% and the “Remaining (without cofactor)” value stood at 99%.
As to `CNC(=O)[C@H](Nc1cc(CN)cc(C(=O)O)c1)c1cc(Cl)cc(C2CC2)c1`, in series [1], the half-life was above 2.89 h and the microsomal CLint was below 10 µL/min/mg. In addition, in series [1] (microsomes), the Remaining is 98.4% and the “Remaining (without cofactor)” value is on record as 103.999%.
Regarding `OCC#C[C@H](Nc1ccc2c(c1)CNC2)c1cc(Cl)cc2[nH]ncc12`, in series [1], the half-life is above 2.89 h and the intrinsic metabolic clearance (microsomal CLint) is below 10 µL/min/mg. Besides, in series [1] (microsomes), the Remaining is on record as 89.541% and the “Remaining (without cofactor)” value came out at 103.012%.
For `O=C1Cc2cc(C(=O)Nc3ccc4c(c3)CNC4)ccc2N1`, in series [2], the half-life is above 2.89 h, the microsomal CLint is below 10 µL/min/mg, the Remaining is recorded as 102.985% and the “Remaining (without cofactor)” value is 100.305%.
In the case of `CNC(=O)c1cc(Cl)c(F)cc1NS(=O)(=O)c1ccc(Oc2ccccc2Cl)cc1`, in series [1], the half-life turned out to be 0.39 h and the microsomal CLint worked out at 71.3 µL/min/mg. For the same molecule, in series [1] (microsomes), the Remaining was 32.8% and the “Remaining (without cofactor)” value worked out at 112.27%. Also, in series [2], the half-life came out at 0.506 h, the microsomal CLint is 45.6 µL/min/mg, the Remaining is on record as 39.045% and the “Remaining (without cofactor)” value was found to be 100.041%.
Take `NCc1cc(Cl)cc(C(=O)Nc2ccc3c(c2)CNC3)c1`: in series [1] (microsomes), the Remaining is 0%, the “Remaining (without cofactor)” value amounted to 109.308% and the T1/2 result is on record as “Half-life could not be determined”.
In series [1], `O=C(O)c1cc(Cl)ccc1NS(=O)(=O)c1ccc(Oc2ccccc2Cl)cc1` yielded a half-life of 0.18 h and a microsomal CLint of 155 µL/min/mg. For the same molecule, in series [1] (microsomes), the Remaining is reported as 8.181% and the “Remaining (without cofactor)” value turned out to be 110.535%. In series [2], the half-life was 1.82 h, the microsomal CLint stood at 13 µL/min/mg, the Remaining worked out at 79.49% and the “Remaining (without cofactor)” value is 100.358%.
In series [1], `CNC(=O)[C@H](Nc1cc(CN)cc(-c2nn[nH]n2)c1)c1cc(Cl)cc(C2CC2)c1` showed a half-life above 2.89 h and an intrinsic clearance (microsomal CLint) below 10 µL/min/mg. Moreover, in series [1] (microsomes), the Remaining was 95.463% and the “Remaining (without cofactor)” value is reported as 101.856%.
